Experimental data published in patent US5696239A (The Dow Chemical Company, priority 1995, dated 1997).
One block for each compound: values may come before it.

Assays:
[1] = Challenge of antibody-complex conjugates with excess DTPA (inertness); assay type: physicochemical; details: 1000 fold molar excess DTPA, pH 7.4, one hour; CC-46 conjugate of Y-90 complex
Experimental: The purified antibody-complexes were added to HEPES buffer (N-2-hydroxyethylpiperazine-N'-2-ethanesulfonic acid) at pH 7.4 and treated with an appropriate amount of 0.1M DTPA solution (pH 7.4) to ensure a 1000 fold molar excess of DTPA over complex attached to antibody. After one hour an aliquot was removed and the antibody-complex conjugates were separated from low molecular weight substances using gel-filtration.

[2] = Complex study: percent yttrium complex after addition of excess metal (lability); assay type: physicochemical
Experimental: (§1) A disposable 10 ml plastic (Biorad) column was filled with 1 to 2 ml of water-swelled Sephadex™ C-25 cation exchange resin. The water was pressure eluted to the top of the resin. Fifteen μl of the complex (or more if counts were low) were added to the top of the resin. This was followed by 2 ml of 4:1 (V:V) isotonic saline:conc. ammonium hydroxide solution as an eluent which was allowed to drip into a counting tube. This was also pressure eluted to the top of the resin. An additional 2 ml of the eluent were added and the column pressure eluted to remove all liquid. The dried resin was then placed in a third counting tube and the three tubes counted on a NaI well counter using a Canberra multichannel analyzer linked to a computer. The percent complex was determined by dividing the number of counts in the two elutions by the total counts in the elutions plus the column, all times 100. By this method, uncomplexed yttrium was retained on the column.
The 1:1 complex of yttrium with 1-(p-aminobenzyl)diethylenetriaminepentaacetic acid (ABDTPA), a well known bifunctional chelant used in the literature, and with the ligand of Example 2 (Now Ex. XVI) and Example 12 (now Ex. XVII) were prepared using the techniques described earlier. Several 100 microliter aliquots were then withdrawn into separate centrifuge tubes. Excess metal was added such that the total volume change is minimized and the time noted. One-half hour after metal addition, the percent complex was determined by the Sephadex™ C-25 method and this was compared to the original amount of complex. The percent complex versus added metal gives an indication as to the lability of the ligand-metal complex. Results are given below and are compared to the EDTA-yttrium complex.

[3] = tested on: osteosarcoma in the right proximal humerus; experiment: Treatment of a dog with osteosarcoma; assay type: in vivo; details: Sm-153 complex, ligand 300 times molar excess; I.V. 0.95 mCi Sm-153 per Kg; one week after injection
Experimental: A dog was presented with an osteosarcoma in the right proximal humerus and walked with significant lameness. A complex was prepared using the ligand of Example 10 with a Sm-153 solution. The concentration of Sm was 3×10^-4 M and the ligand was used with a 300 times molar excess. The specific activity of the Sm-153 was 30 mCi/ml. The dog was given an I.V. injection of this complex containing 0.95 mCi of Sm-153 per Kg body weight of the dog.

[4] = Percent complex determination, yttrium complexes (Sephadex C-25 cation exchange); assay type: physicochemical; details: for % Complex (10:1), Y: ligand/metal 10:1, pH 7.4
Experimental: Complexes were made by preparing a 0.0003M yttrium solution in water. (YCl3.6H2 O, 303.26 g/mole; Y(OAc)3, 12.1% H2 O). Radioactive YCl3 (Oakridge National Laboratories) was added to give the desired number of counts. Ten μl of ligand solution (at 0.03M) were added to 990 μl of the Y solution, giving a ligand-to-metal ratio of 1:1. (Ten times the amount of ligand solution was used for a 10:1 ligand to metal ratio.) The pH was then adjusted to 7.4 using microliter quantities of hydrochloric acid or sodium hydroxide. The solution was then tested for the amount of complexed yttrium using the cation exchange method given below.
as §1

[5] = Biodistribution in a rabbit; assay type: in vivo; details: Y-90, ligand 10 times molar excess
Experimental: Muscle was calculated using 46% of body weight.
A rabbit was injected in the same manner as the rats with a formulation having Y-90 with Y at 3×10^-4 M and the ligand of Example 10 at 10 times molar excess.

[6] = In vivo biodistribution of chelates in rats (% dose in organs); details: rat; for % Injected Dose in Liver: 2 hours after i.v. injection; for % dose in the spleen / % dose in the bone / % dose in the blood / % dose in the muscle: 2 hours; for % dose in the bone: 25 times % dose in a femur; for % dose in the blood: blood 6.5% of animal weight; for % dose in the muscle: muscle 46% of body weight
Experimental: Also samarium was injected as samarium chloride in unchelated form.
These animals were placed in cages and fed water and food ad libitum. The animals were acclimated for at least five days before use. Prior to injection of complex, the animals were placed under a heat lamp (15 to 30 minutes) to dilate the tail vein. Then, the animal was placed in a restraining cage, the tail cleaned with an alcohol swipe, and the animal injected (50 to 200 μl) via the tail vein. After injection, the animal was placed in another cage for two hours after which time the animal was sacrificed by cervical dislocation. The animal was then dissected, the parts rinsed with deionized H2 O , patted dry, and weighed into a tared counting vial. Whatever size of injection was made, at least three standards of the same material were prepared and counted with the animal parts.
Complexes were prepared by mixing a solution of ligand and metal then adjusting the pH to 7-8. The amount of metal that was complexed to ligand was determined by cation exchange chromatography. Free metal was retained by the resin, metal in the form of a complex was not.
One-hundred μl of the complexes were injected into the tail vein of three Sprague Dawley rats. Two hours after injection, the rats were killed by cervical dislocation and samples of tissues were taken. The tissues were weighed and the amount of radiation in each tissue determined by measuring the number of counts using a NaI well counter and comparing them to standards. […] The amount in bone was 25 times the % dose in a femur. The examples below differ in the ligand, amount of ligand and amount of metal used. Non-radioactive metal was used to obtain the desired ligand to metal ratios and tracer radioactive metal was used to obtain the biodistribution.

[7] = Percent complex determination, samarium complexes (Sephadex C-25 cation exchange); assay type: physicochemical; details: samarium
Experimental: as §1, with “100.” for “100. By this method, uncomplexed yttrium was retained on the column.”
Percent complex determination was made in the same manner as for the yttrium complex.

[8] = metal/ligand molar ratio 250, one-half hour after metal addition
[9] = metal/ligand molar ratio 500, one-half hour after metal addition
[10] = Ho-166, ligand 300 times molar excess
[11] = Sm-153, ligand 10 times molar excess
[12] = Sm-153, ligand 300 times molar excess
[13] = ligand/metal ratio about 1:1 (* footnote)

% Complex ([2]; metal/ligand molar ratio 10, one-half hour after metal addition): 95%
% Complex [2, 8]: 87%
% Complex [2, 9]: 70%
SMILES: Nc1ccc(CC(CN(CCN(CC(=O)O)CC(=O)O)CC(=O)O)N(CC(=O)O)CC(=O)O)cc1 (stereo not shown) [ABDTPA, 1-(p-aminobenzyl)diethylenetriaminepentaacetic acid]
yttrium lost from antibody-complex conjugate [1]: over 98%

SMILES: CC(=O)Nc1cc(C(C(=O)O)N(CC(=O)O)CC(=O)O)c(O)c(C(C(=O)O)N(CC(=O)O)CC(=O)O)c1 (stereo not shown) [Example 10, 2,6-BIS{[BIS(CARBOXYMETHYL)-AMINO](CARBOXY)METHYL}-4-(ACETAMIDO)PHENOL]
dog's gait [3]: noticeably improved
% Complex (10:1), Y [4]: 98%
activity in blood [5]: 0.68%
activity in bone [5]: 59%
activity in liver [5]: 1.1%
activity in muscle [5]: 1.5%
activity in spleen [5]: 0.19%
% Injected Dose in Liver ([6]; Ho complex, ligand 300 times molar excess): 0.26%
% dose in the spleen [6, 10]: 0.007%
% dose in the bone [6, 10]: 52.9%
% dose in the blood [6, 10]: 0.09%
% dose in the muscle [6, 10]: 1.1%
% Injected Dose in Liver ([6]; Sm complex, ligand 300 times molar excess): 0.12%
% Injected Dose in Liver ([6]; Sm complex, ligand/metal 10:1): 1.3%
% dose in the spleen [6, 11]: 0.01%
% dose in the bone [6, 11]: 48.5%
% dose in the blood [6, 11]: 0.18%
% dose in the muscle [6, 11]: 0.73%
% dose in the spleen [6, 12]: 0.005%
% dose in the bone [6, 12]: 52.7%
% dose in the blood [6, 12]: 0.05%
% dose in the muscle [6, 12]: 0.23%
% Injected Dose in Liver ([6]; Y complex, ligand/metal 10:1): 0.39%

% Complex [2, 8]: 90%
% Complex [2, 9]: 79%
% Complex (10:1), Y [4]: 99%
% Complex, Y [4, 13]: 98%
% Complex (10:1), Sm ([7]; ligand/metal 10:1): 98%
% Complex, Sm [7, 13]: 98%
SMILES: Nc1cc(CN(CCN(CC(=O)O)CC(=O)O)CC(=O)O)c(O)c(CN(CCN(CC(=O)O)CC(=O)O)CC(=O)O)c1 [Example 12]
yttrium lost from antibody-complex conjugate [1]: approximately 39%
